Patent publication US20180370940A1, “SALICYLIC ACID DERIVATIVE, METHOD FOR PREPARING SAME, AND COSMETIC COMPOSITION FOR WHITENING COMPRISING SAME” (AMOREPACIFIC CORPORATION, priority 2015, published 2018)

System: Mushroom-derived tyrosinase
Assay: Inhibitory effect on tyrosinase activity (mushroom tyrosinase, L-tyrosine substrate, absorbance at 490 nm)
Assay type: biochemical
Settings: for inhibitory effect on tyrosinase activity (in words): at a concentration of 200 μM or less; for IC50: mushroom tyrosinase, 1.5 mM L-tyrosine, pH 6.5, 37° C. for 20 minutes, absorbance at 490 nm, read-out: Inhibition of tyrosinase activity (IC50)
Experimental: In order to investigate the tyrosinase activity inhibitory effect of the salicylic acid derivatives prepared in Examples 1 to 6, the following experiment was conducted. Mushroom-derived tyrosinase and tyrosine were purchased from Sigma Chemical. Each sample was treated with 150 microliters of 0.1 M phosphate buffer (pH 6.5), 8 microliters of mushroom tyrosinase (2,100 units/ml, 0.05 M phosphate buffer, pH 6.5) and 36 microliters of 1.5 mM L-tyrosine by concentration. After the enzymatic reaction was carried out at 37° C. for 20 minutes, the activity of tyrosinase was measured by measuring the absorbance at 490 nm using a microplate reader (Bio-Rad 3550, Richmond, Calif., U.S.A.). The inhibitory effect of tyrosinase of the salicylic acid derivatives prepared in Examples 1 to 6 was determined based on the following Equation (1). Tyrosinase inhibition ratio (%)=100−((Reaction absorbance of each sample/reaction absorbance of the control group)×100) [Equation 1] The concentration of each test substance which decreased the activity of tyrosinase by 50% was determined by the above Equation, and the obtained results are shown in Table 1.

| Structure (SMILES) | inhibitory effect on tyrosinase activity (in words) | IC50 [µM] |
| --- | --- | --- |
| COc1cccc(C(=O)O)c1O [3-Methoxysalicylic acid, reference compound] | do not exhibit the inhibitory effect | > 200 |
| Cc1cccc(C(=O)O)c1O [3-Methylsalicylic acid, reference compound] | do not exhibit the inhibitory effect | > 200 |
| Cc1ccc(O)c(C(=O)OCc2cc(=O)c(O)co2)c1 [Compound of Example 3, 2-hydroxy-5-methyl-benzoic acid 5-hydroxy-4-oxo-4H-pyran-2-ylmethyl ester] |  | 5.3 |
| COc1cccc(C(=O)OCc2cc(=O)c(O)co2)c1O [Compound of Example 4, 2-hydroxy-3-methoxy-benzoic acid 5-hydroxy-4-oxo-4H-pyran-2-ylmethyl ester] |  | 4.21 |
| O=c1cc(CO)occ1O [Kojic acid, reference compound] |  | 41 |

Continued, values first:

| inhibitory effect on tyrosinase activity (in words) | IC50 [µM] | Structure (SMILES) |
| --- | --- | --- |
|  | 3.2 | Cc1cccc(C(=O)OCc2cc(=O)c(O)co2)c1O [Compound of Example 1, 2-hydroxy-3-methyl-benzoic acid 5-hydroxy-4-oxo-4H-pyran-2-ylmethyl ester] |
|  | 1.51 | Cc1ccc(C(=O)OCc2cc(=O)c(O)co2)c(O)c1 [Compound of Example 2, 2-hydroxy-4-methyl-benzoic acid 5-hydroxy-4-oxo-4H-pyran-2-ylmethyl ester] |
|  | 4.2 | COc1ccc(C(=O)OCc2cc(=O)c(O)co2)c(O)c1 [Compound of Example 5, 2-hydroxy-4-methoxy-benzoic acid 5-hydroxy-4-oxo-4H-pyran-2-ylmethyl ester] |
|  | 3.29 | COc1ccc(O)c(C(=O)OCc2cc(=O)c(O)co2)c1 [Compound of Example 6, 2-Hydroxy-5-methoxy-benzoic acid 5-hydroxy-4-oxo-4H-pyran-2-ylmethyl ester] |
